For experiment [1], the target named is T1, Dipeptidyl peptidase 4 (Homo sapiens, UniProt P27487). Kind of experiment: Inhibition of human DPP-4 assessed as cleavage of substrate using H-Gly-Pro-pNA chromogenic substrate at 10 uM after 10 mins by double beam spectrophotometer.
Target sequence in this assay (P27487 whole entry, looked up): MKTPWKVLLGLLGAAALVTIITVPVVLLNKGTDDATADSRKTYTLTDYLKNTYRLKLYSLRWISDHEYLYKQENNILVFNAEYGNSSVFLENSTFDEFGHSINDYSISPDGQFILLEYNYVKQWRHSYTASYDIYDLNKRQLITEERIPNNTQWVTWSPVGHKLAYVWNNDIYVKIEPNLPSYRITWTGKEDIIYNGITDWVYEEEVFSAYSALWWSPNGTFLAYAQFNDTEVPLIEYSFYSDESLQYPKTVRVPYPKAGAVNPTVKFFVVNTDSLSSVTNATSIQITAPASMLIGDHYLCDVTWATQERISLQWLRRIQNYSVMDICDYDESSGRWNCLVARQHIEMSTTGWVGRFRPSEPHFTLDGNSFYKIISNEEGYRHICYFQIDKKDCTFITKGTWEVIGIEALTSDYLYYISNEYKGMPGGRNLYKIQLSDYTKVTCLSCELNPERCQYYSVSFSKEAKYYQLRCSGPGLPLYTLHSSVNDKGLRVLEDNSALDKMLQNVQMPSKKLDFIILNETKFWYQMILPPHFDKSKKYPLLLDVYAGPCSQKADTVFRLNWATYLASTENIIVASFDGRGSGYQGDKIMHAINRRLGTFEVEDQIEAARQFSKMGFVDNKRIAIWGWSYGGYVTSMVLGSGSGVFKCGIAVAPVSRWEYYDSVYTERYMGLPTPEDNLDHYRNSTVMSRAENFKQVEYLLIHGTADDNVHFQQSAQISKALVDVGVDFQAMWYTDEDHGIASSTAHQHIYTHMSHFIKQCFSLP
Experiment [2] deals with T1, Dipeptidyl peptidase 4. Kind of experiment: Inhibition of human DPP-4 assessed as cleavage of substrate using H-Gly-Pro-pNA chromogenic substrate after 10 mins by double beam spectrophotometer.
Target sequence in this assay (P27487 whole entry): as the sequence (P27487 whole entry, looked up) above

The term inhibition denotes the percentage by which the read-out fell short of the control. One may read the IC50 as the midpoint of a concentration-inhibition curve.

As for `CCCN1C(c2ccc(C(C)C)cc2)CC(=O)[C@H]2C1C[C@H]1[C@@H]3CC=C4C[C@@H](O)CC[C@]4(C)[C@H]3CC[C@]21C` (stereo not given in full), the inhibition in experiment [1] amounted to 19.1%. Further, the concentration for half-maximal inhibition (IC50) in experiment [2] was found to be 29.1 µM.

Regarding `CC(=O)[C@H]1C(NCc2ccccc2)C[C@H]2[C@@H]3CC=C4C[C@@H](O)CC[C@]4(C)[C@H]3CC[C@]12C` (stereo not given in full), the inhibition in experiment [1] worked out at 28.4%. Also, the IC50 in experiment [2] is 21.3 µM.

In the case of `CCCN1C(c2ccc(OC)cc2)CC(=O)[C@H]2C1C[C@H]1[C@@H]3CC=C4C[C@@H](O)CC[C@]4(C)[C@H]3CC[C@]21C` (stereo not given in full), the inhibition in experiment [1] is 20.4%. For the same compound, the concentration for half-maximal inhibition (IC50) in experiment [2] stood at 32.7 µM.

As to `COc1ccc(/C=C/C(=O)C2=CC[C@H]3[C@@H]4CC=C5C[C@@H](O)CC[C@]5(C)[C@H]4CC[C@]23C)cc1OC`, the inhibition in experiment [1] was 24.1%. In addition, the IC50 in experiment [2] was 26.2 µM.

As for `CC(=O)O[C@H]1CC[C@@]2(C)C(=CC[C@@H]3[C@@H]2CC[C@]2(C)C(C(C)=O)=CC[C@@H]32)C1`, in experiment [1], the inhibition was found to be 17.3%. The IC50 in experiment [2] stood at 35.6 µM.

The values above are taken from ChEMBL document CHEMBL1759980, “Aza-annulation on the 16-dehydropregnenolone, via tandem intermolecular aldol process and intramolecular Michael addition” (Bioorg Med Chem Lett, 2011).
